# Measurements from patent US9532980B2, “Methods for the treatment of A-β related disorders and compositions therefor” (The Rockefeller University, priority 2006, dated 2017).
# Experiments:
# [1] = system: Aβ40 and Aβ42 peptide production in N2A-APP695 cells transiently expressing CK1ε-271; assay: Aβ40/Aβ42 ELISA in N2A-APP695 cells transiently expressing constitutively active CK1ε-271; type: cell-based; conditions: for effect on Aβ40 and Aβ42 peptide concentration/production: increasing concentrations, 3 hours incubation, ELISA
# Method: (§1) N2A-APP695 cells are plated in 12-well dishes at a density of 3×10^5 cells per well in DMEM/Opti-MEM medium containing 5% Fetal Bovine Serum (FBS) following manufacturer's instructions (American Type Culture Collection).=For the time-course experiments, cells are exposed to drugs for 1-24 h.
# Transfection: Transfection of N2A-APP695 cells is performed by standard methods. Cells are grown to 60% confluence and then transfected with relevant constructs with FUGENE6 according to the manufacturer's protocol (Roche Applied Bioscience). After transfection, cells are recovered with 100 μl of RIPA buffer, incubated for 30 min on ice, and centrifuged at 13,000 rpm 20 min at 4° C. The supernatants are collected and submitted to BCA (Pierce) quantification accordingly to manufacturer's instructions. Equal amounts of cell extracts are loaded onto 4-12% Bis-Tris acrylamide gels (Invitrogen) with MES buffer and subjected to western blot analysis using appropriate antibodies. For immunoprecipitation assays, media are incubated with antibody 4G8 (Signet) to detect Aβ and full length βAPP. Drugs are added to cell cultures in fresh medium (0.5% fetal bovine serum); media and cells are collected at the relevant time.
# N2A cells stably expressing APP-695 are transiently transfected with CK1ε-271. 48 hours post-transfection, cells are incubated in the absence or presence of increasing concentrations of CK1 inhibitor IC261. Cell supernatants are collected after 3 hours of incubation and subjected to Aβ40/Aβ42 ELISA assays. […] In order to exclude non-specific effects of IC261, two other CK1 inhibitors, CKI-7 and D4476 are tested.
# [2] = system: Aβ peptide production in N2A cells expressing APP-695; assay: Endogenous Aβ peptide production in N2A cells expressing APP-695 (sandwich ELISA, immunoprecipitation/western blot); type: cell-based; conditions: for decrease for Aβ40 peptide / decrease for Aβ42 peptide: 50 μM, three hours, N2A cells expressing APP-695
# Method: as §1
# 2003 Oct. 14; 100(21):12444-9.
# We next investigated the effect of the three different classes of CK1 inhibitors CKI-7, IC-261, and D4476 (Chijiwa, T., et al. (1989) J Biol Chem 264, 4924-7; Mashhoon, N., et al. (2000) J Biol Chem 275, 20052-60; Rena, G., et al. (2004) EMBO Rep 5, 60-5) on Aβ peptide production in N2A cells expressing APP-695.
# N2A-APP695 cells = assay: Cell viability: lactate dehydrogenase release into media (CytoTox96 kit); type: cell-based
# Description: To exclude the possibility that the inhibitory effects on Aβ peptide production are due to cellular toxicity, we investigated the effects of the drugs on cell viability. Media are collected and tested for the level of lactate dehydrogenase, a stable cytosolic enzyme released upon cell lysis, using a non-radioactive CytoTox96 kit (Promega). Values obtained from drug treated cells are compared with values obtained with DMSO and non-treated cells. No toxicity is observed for CKI-7, even after 24 hours of incubation and for the highest concentration tested (50 μM). A slight toxicity (less than 1-fold) is observed for D4476, only for the higher dose tested (50 μM) and only after 24 hours of incubation.
# Notch cleavage = assay: mNotchΔE Notch-1 cleavage assay in N2A cells (western blot, NICD); type: cell-based; conditions: N2A cells over-expressing mNotchΔE, 3 hours
# Method: mNotchΔE Transfection and Notch-1 Cleavage Assays in N2A-APP695 Cells: N2A cells stably overexpressing APP Swedish mutant are transiently transfected to overexpress mNotchE (truncated Notch-1, lacking most of the Notch extracellular domain (Kopan, R., et al. (1996) Proc Natl Acad Sci USA 93, 1683-8). Cultures are preincubated with the different inhibitors for 3 hours. mNotchΔE is detected in cell lysates by western blot analysis using the Cleaved Notch 1 antibody (NICD) available from Cell Signaling.
# Several protein kinases and protein phosphatases have been implicated in the progression of Alzheimer's disease and especially in the regulation of β-amyloid formation. These include the protein kinases PKA, PKC, GSK3-β and CDK5, and the protein phosphatases PP1/PP2A and PP2B. […] Unfortunately, these effects are associated with increased carcinogenic risk. […] We therefore investigated the effect of CK1 inhibitors on Notch processing. Briefly, N2A cells transiently transfected with N-terminally truncated mNotchΔE-myc cDNA containing plasmid are incubated with 1, 10 μM concentrations of DAPT, 1,10 μM concentrations of L-685,458, 5, 50 μM concentrations of D4476 or 1, 10 μM concentrations of Gleevec for 3 hours. Cell lysates are analysed by conventional SDS-PAGE analysis and western blotting using anti-Notch (NICD cleavage product), anti-Aβ, anti-myc and anti-actin antibodies.
# CK1 = conditions: Rena et al. (2004) EMBO Rep 5, 60-5; cited from earlier work
# [3] = system: APP, βCTF and Aβ40 peptide levels in N2A-APP695 cells; assay: APP, βCTF and Aβ40 levels in N2A-APP695 cells (western blot, Aβ40 ELISA); conditions: 50 μM, 3 hours
# Method: Aβ quantification: After immobilization of total Aβ (coated monoclonal antibody specific for the N-terminus of Aβ from media, Aβ40/42 peptide determinations are made by sandwich ELISA (BioSource International) using rabbit polyclonal antibodies specific for the C-terminus of Aβ40 or Aβ42. In all cases, Aβ levels are normalized to total protein levels.
# The effects of D4476 on APP, βCTF and Aβ40 peptide levels in N2A-APP695 cells are compared. N2A cells are incubated for 3 hours with 0, 1, 5 or 50 μM concentrations of D4476. Cellular extracts are subjected to western blotting analysis using βCTF or APP antibodies, or to Aβ40 ELISA assays. […] Data for at least three experiments (mean±S.E.M.) are compared (Prism) with the control conditions (no drug).
# APP-C99 in N2A cells = assay: C99 breakdown and Aβ production in N2A cells transiently transfected with APP-C99; conditions: 3 hours
# Method: Cellular extracts are subjected to western blotting analysis using βCTF or APP antibodies, or to Aβ40 ELISA assays. N2A cells are transiently transfected with a APP-C99 containing plasmid. […] Cell lysates are analyzed by SDS-PAGE and western blotting analysis or by Aβ40 ELISA assay. Data for at least three experiments (mean±S.E.M.) are compared (Prism) with the control conditions (no drug).
# [4] = CK1ε-271 over-expressing N2A-APP695 cells
SMILES,"effect on Aβ40 and Aβ42 peptide concentration/production [1, 4]",decrease for Aβ40 peptide [2] [%],decrease for Aβ42 peptide [2] [%],Notch cleavage (Notch cleavage),other results
NCCNS(=O)(=O)c1ccc(Cl)c2ccncc12 [CKI-7],significant and dose-dependent reduction,14.8,24,not affected,"toxicity (lactate dehydrogenase release) (N2A-APP695 cells; 24 hours of incubation, highest concentration tested (50 μM)): No toxicity"
"NC(=O)c1ccc(-c2nc(-c3ccc4c(c3)OCCO4)c(-c3ccccn3)[nH]2)cc1 [D4476, 4-(4-(2,3-dihydrobenzo[1,4]dioxin-6-yl)-5-pyridin-2-yl-1H-imidazol-2-yl)benzamide]",significant and dose-dependent reduction,42,54.1,not affected,"toxicity (lactate dehydrogenase release), fold (N2A-APP695 cells; slight toxicity only at 50 μM and only after 24 hours, compared with DMSO and non-treated cells): less than 1 fold; concentration required to observe an effect on CK1 activity in cell lines (CK1): 50 µM; APP expression level [3]: no effect; Aβ peptide production [3]: considerably reduces; βCTF levels [3]: significantly increases; lowest concentration at which effects on C99 breakdown and Aβ production are apparent (APP-C99 in N2A cells): 5 µM; Aβ peptide production (APP-C99 in N2A cells; various concentrations): decreased Aβ peptide production in a dose dependent manner; breakdown of C99 (APP-C99 in N2A cells; various concentrations): inhibited the breakdown of C99"
C[C@H](NC(=O)Cc1cc(F)cc(F)c1)C(=O)N[C@H](C(=O)OC(C)(C)C)c1ccccc1 [DAPT],,,,total inhibition,
"COc1cc(OC)c(/C=C2/C(=O)Nc3ccccc32)c(OC)c1 [IC261, (3E)-3-[(2,4,6-trimethoxyphenyl)methylidene]-1 H-indol-2-one]",dramatic reduction,48,52.4,not affected,"concentration at which the effect on Aβ40/Aβ42 is near maximum ([1]; CK1ε-271 over-expressing N2A-APP695 cells, 3 hours): 5 µM; time dependence of the reduction of Aβ40 and Aβ42 peptide concentration ([1]; longer exposure gives greater reduction): time-dependent effect; toxicity (lactate dehydrogenase release) (N2A-APP695 cells; after 12 hours of incubation): No effect on toxicity"
"NC(=O)c1ccc(-c2nc(-c3ccc4c(c3)OCO4)c(-c3ccccn3)[nH]2)cc1 [SB-431542, 4-(4-(benzo[1,3]dioxol-5-yl)-5-pyridin-2-yl-1H-imidazol-2-yl)benzamide]",,,,,properties on Aβ peptide formation compared with D4476 [2]: very comparable properties
